From patent US20130190289A1, “COMPOUNDS AND METHODS FOR THE TREATMENT OR PREVENTION OF FLAVIVIRUS INFECTIONS” (priority 2010, published 2013)
pIC50: −log10 of the molar value. Where two headings read alike, the source gives them in different places.

What was measured:
[1] = system: HCV replicon (genotype 1b) in Huh7 cell line ET; assay: microbe, parasite or virus in culture; format: cell-based, HCV genotype 1b; conditions: Hepatitis C virus
[2] = [3H]Thymidine incorporation assay (cell toxicity); conditions: human
[3] = Huh-7, 96 h, read-out: HCV-Replicon (Luci-ET)-1b_IC50
[4] = Huh-7, read-out: HCV-Replicon-(Luci-ET) 1b_IC50

| Structure (SMILES) | pIC50 [1, 3] | CC50 at 72 h [2] [µM] | pIC50 [1, 4] |
| --- | --- | --- | --- |
| CC[C@@H](C(=O)N1CCOCC1)N(c1cc(-c2ccccc2)sc1C(=O)O)C(=O)[C@H]1CC[C@H](C)CC1 [Compound 126, 3-[(trans-4-methylcyclohexanecarbonyl)-[(1S)-1-(morpholine-4-carbonyl)propyl]amino]-5-phenyl-thiophene-2-carboxylic acid] | 6.00 to 7.00 | > 100 |  |
| CC1CN(C(=O)[C@H](C)N(c2cc(C#CC(C)(C)C)sc2C(=O)O)C(=O)[C@H]2CC[C@H](C)CC2)CCO1 (stereo partly drawn) [Compound 49, 5-(3,3-Dimethylbut-1-ynyl)-3-[(trans-4-methylcyclohexanecarbonyl)-[(1S)-1-methyl-2-(2-methylmorpholin-4-yl)-2-oxo-ethyl]amino]thiophene-2-carboxylic acid] |  | > 100 | > 7.00 |
| CC1CCC(C(=O)N(CCC(=O)N2CCOCC2)c2cc(C#CC(C)(C)C)sc2C(=O)O)CC1 (centres unmarked) [Compound 97] |  | > 100 | > 7.00 |
| COCCN(C)C(=O)[C@H](C)N(c1cc(C#CC(C)(C)C)sc1C(=O)O)C(=O)[C@H]1CC[C@H](C)CC1 [Compound 38, 5-(3,3-Dimethylbut-1-ynyl)-3-[[(1S)-2-[2-methoxyethyl(methyl)amino]-1-methyl-2-oxo-ethyl]-(trans-4-methylcyclohexanecarbonyl)amino]thiophene-2-carboxylic acid] |  | > 100 | > 7.00 |
| CC1CN(C(=O)CN(c2cc(C#CC(C)(C)C)sc2C(=O)O)C(=O)[C@H]2CC[C@H](C)CC2)CCO1 (some centres unmarked) [Compound 26] |  | 10 to 100 | > 7.00 |
| CCOC[C@@H](C(=O)N(C)C)N(c1cc(C#CC(C)(C)C)sc1C(=O)O)C(=O)[C@H]1CC[C@H](C)CC1 [Compound 88, 3-[[(1S)-2-(Dimethylamino)-1-(ethoxymethyl)-2-oxo-ethyl]-(trans-4-methylcyclohexanecarbonyl)amino]-5-(3,3-dimethylbut-1-ynyl)thiophene-2-carboxylic acid] |  | > 100 | > 7.00 |
| CC(C(=O)N(C)C)N(c1cc(C#CC(C)(C)C)sc1C(=O)O)C(=O)[C@H]1CC[C@H](C)CC1 (relative stereo) [Compound 7, 5-(3,3-Dimethyl-but-1-ynyl)-3-[(1-dimethylcarbamoyl-ethyl)-(trans-4-methyl-cyclohexanecarbonyl)-amino]-thiophene-2-carboxylic acid] |  | 10 to 100 | > 7.00 |
| CC(C)NC(=O)CN(c1cc(C#CC(C)(C)C)sc1C(=O)O)C(=O)[C@H]1CC[C@H](C)CC1 [Compound 73, 5-(3,3-dimethylbut-1-ynyl)-3-[[2-(isopropylamino)-2-oxo-ethyl]-(trans-4-methylcyclohexanecarbonyl)amino]thiophene-2-carboxylic acid] |  | > 100 | > 7.00 |
| CN(C)CCN1CCCC[C@H](N(c2cc(C#CC(C)(C)C)sc2C(=O)O)C(=O)[C@H]2CC[C@H](C)CC2)C1=O [Compound 145, (S)-5-(3,3-Dimethylbut-1-ynyl)-3-((trans)-4-methyl-N-(1-(2-dimethylaminoethyl)-2-oxoazepan-3-yl)cyclohexanecarboxamido)thiophene-2-carboxylic acid] | > 7.00 | 10 to 100 |  |
| CC[C@@H](C(=O)N(C)CCO)N(c1cc(C#CC(C)(C)C)sc1C(=O)O)C(=O)[C@H]1CC[C@H](C)CC1 [Compound 77, 5-(3,3-Dimethylbut-1-ynyl)-3-[[(1S)-1-[2-hydroxyethyl(methyl)carbamoyl]propyl]-(trans-4-methylcyclohexanecarbonyl)amino]thiophene-2-carboxylic acid] |  | > 100 | > 7.00 |
| CC[C@@H](C(=O)N(C)C1CCOCC1)N(c1cc(C#CC(C)(C)C)sc1C(=O)O)C(=O)[C@H]1CC[C@H](C)CC1 [Compound 81, 5-(3,3-Dimethylbut-1-ynyl)-3-[(trans-4-methylcyclohexanecarbonyl)-[(1S)-1-[methyl(tetrahydropyran-4-yl)carbamoyl]propyl]amino]thiophene-2-carboxylic acid] |  | 10 to 100 | > 7.00 |
| CCN1CCCC[C@H](N(C(=O)c2ccc(Cl)cc2Cl)c2cc(C#CC(C)(C)C)sc2C(=O)O)C1=O [Compound 135, (S)-5-(3,3-dimethylbut-1-ynyl)-3-[(2,4-dichlorobenzoyl)-N-(1-ethyl-2-oxoazepan-3-yl)amino]-thiophene-2-carboxylic acid] | > 7.00 | > 100 |  |
| CC1COCCN1C(=O)[C@H](C)N(c1cc(C#CC(C)(C)C)sc1C(=O)O)C(=O)[C@H]1CC[C@H](C)CC1 (stereo partly drawn) [Compound 47, 5-(3,3-dimethylbut-1-ynyl)-3-[(trans-4-methylcyclohexanecarbonyl)-[(1S)-1-methyl-2-(3-methylmorpholin-4-yl)-2-oxo-ethyl]amino]thiophene-2-carboxylic acid] |  | > 100 | > 7.00 |
| COCCN1CCC[C@H](N(c2cc(C#CC(C)(C)C)sc2C(=O)O)C(=O)[C@H]2CC[C@H](C)CC2)C1=O [Compound 150, (S)-5-(3,3-Dimethylbut-1-ynyl)-3-((trans)-4-methyl-N-(1-(2-methoxyethyl)-2-oxopiperidin-3-yl)cyclohexanecarboxamido)thiophene-2-carboxylic acid] | > 7.00 | > 100 |  |
| C[C@@H](C(=O)N1CCCC1)N(c1cc(C#CC(C)(C)C)sc1C(=O)O)C(=O)[C@H]1CC[C@H](C)CC1 [Compound 9, 5-(3,3-Dimethylbut-1-ynyl)-3-[(trans-4-methylcyclohexanecarbonyl)-[(1S)-1-methyl-2-oxo-2-pyrrolidin-1-yl-ethyl]amino]thiophene-2-carboxylic acid] |  | > 100 | > 7.00 |
| CCC1CCC(C(=O)N(c2cc(C#CC(C)(C)C)sc2C(=O)O)[C@@H](COC)C(=O)N2CCCC2)CC1 (stereo partly drawn) [Compound 63, 5-(3,3-Dimethylbut-1-ynyl)-3-[(4-ethylcyclohexanecarbonyl)-[(1S)-1-(methoxymethyl)-2-oxo-2-pyrrolidin-1-yl-ethyl]amino]thiophene-2-carb oxylic acid] |  | 10 to 100 | 6.00 to 7.00 |
| CO[C@@H](C)[C@@H](C(=O)N(C)C)N(c1cc(C#CC(C)(C)C)sc1C(=O)O)C(=O)[C@H]1CC[C@H](C)CC1 [Compound 66, 5-(3,3-Dimethylbut-1-ynyl)-3-[[(1S,2S)-1-(dimethylcarbamoyl)-2-methoxy-propyl]-(trans-4-methylcyclohexanecarbonyl)amino]thiophene-2-carboxylic acid] |  | > 100 | > 7.00 |
| COC1CCN(C(=O)C[C@H](C)N(c2cc(C#CC(C)(C)C)sc2C(=O)O)C(=O)[C@H]2CC[C@H](C)CC2)CC1 [Compound 115, 5-(3,3-Dimethylbut-1-ynyl)-3-[[(1S)-3-(4-methoxy-1-piperidyl)-1-methyl-3-oxo-propyl]-(trans-4-methylcyclohexanecarbonyl)amino]thiophene-2-carboxylic acid] |  | > 100 | > 7.00 |
| CNC(=O)CN(c1cc(C#CC(C)(C)C)sc1C(=O)O)C(=O)[C@H]1CC[C@H](C)CC1 [Compound 1, 5-(3,3-dimethylbut-1-ynyl)-3-[[2-(methylamino)-2-oxo-ethyl]-(trans-4-methylcyclohexanecarbonyl)amino]thiophene-2-carboxylic acid] |  | 10 to 100 | > 7.00 |
